Measurements published in patent US20240360109A1 (SHANGHAI HANSOH BIOMEDICAL CO., LTD., priority 2021, published 2024).

Key:
human GLP-1 receptor = target: T1, human GLP-1 receptor (Homo sapiens, UniProt P43220); experiment: Stimulation of human GLP1 receptor stable transgenic cell line CHO-K1/GLP-1R/CRE-luc to produce cAMP (HTRF); type: cell-based; details: cAMP production, CHO-K1/GLP-1R/CRE-luc cells, 30 minutes incubation, 0.5 mM IBMX
T1 construct: expressed in transfected cells
Description: I. Determination of the Ability of the Compound of the Present Invention to Stimulate Human GLP1 Receptor Stable Transgenic Cell Lines to Produce cAMP
The purpose of this test example is to determine the ability of the compound to activate the human GLP-1 receptor on the cell surface. The EC50 that stimulates […] after agonism characterizes the compound's ability to activate the human GLP-1 receptor.
The frozen human GLP1 receptor stable transgenic cell line CHO-K1/GLP-1R/CRE-luc was taken from the liquid nitrogen tank, quickly thawed in a 37° C. water bath, resuspended with DMEM/F12 medium, centrifuged, and washed once. The cells were resuspended with the experimental buffer, namely DMEM/F12 medium containing 0.1% casein, and the experimental buffer was used to adjust the cell density. The cells were spread on spread on a 384-well plate at a density of 2500 cells/5 μL/well, and then to each well was added 2.5 μL of buffer-prepared IBMX working solution with a final concentration of IBMX of 0.5 mM, and 2.5 μL of the compound sample with gradient dilution (starting at 1000 nM, 3-fold dilution, 11 concentrations). The plate was centrifuged at 1000 rpm for 1 minute, shaken for 30 seconds to mix well, and incubated at room temperature for 30 minutes. Detection was performed using the Cisbio cAMP—Gs Dynamic kit. cAMP-d2 and Anti-cAMP-Eu^3+-Cryptate were diluted 20-fold with cAMP Lysis & Detection Buffer, respectively, and mixed well. To each well was added 5 μL diluted cAMP-d2 solution, and then added 5 μL diluted Anti-cAMP-Eu3^+-Cryptate solution. The plate was shaken for 30 seconds, and incubated at room temperature for 1 hour in the dark. The signal reading of HTRF was performed using the Biotek Synergy H1 microplate reader with an excitation wavelength of 320 nm and emission wavelengths of 620 nm and 665 nm.
The signal ratio (665 nm/620 nm*10,000) was calculated, and the signal ratio and sample concentration were nonlinearly fitted using a four-parameter equation in GraphPad Prism 6 to obtain the EC50 value.

[1] = Pharmacokinetic assay of SD rats; type: in vivo; details: Sprague-Dawley, rat, po; male SD rats, plasma, dose 50 mg/kg (b1219 prints 5 mg/kg)
Method: SD rats were used as test animals. The pharmacokinetic behavior of the following example compounds was studied in the plasma of rats administered orally at a dose of 50 mg/kg.
Vehicle formula: 0.5% CMC-Na (1% Tween 80);
Three SD rats per group, male. […]
Before and after administration, 0.2 mL of blood was collected from the jugular vein at 0, 0.25, 0.5, 1, 2, 4, 6, 8 and 24 hours, placed in EDTA-K2 tubes, centrifuged at 6000 rpm at 4° C. for 6 min to separate the plasma. The plasma samples were stored at −80° C. The […] was fed 4 hours after the administration.
• 1) 160 μL of acetonitrile was added to 40 μL of the plasma sample for precipitation, and then the mixture was centrifuged at 3500×g for 5-20 min. • 2) After the above process, 100 μL of the supernatant was taken to analyze the concentration of the test compound by LC/MS/MS.
• Liquid chromatography condition: Shimadzu LC-20AD pump Mass spectrometry condition: AB Sciex API 4000 mass spectrometer Chromatographic column: phenomenex Gemiu 5 μm C18 50×4.6 mm • Mobile phase: Eluent A was 0.1% formic acid in water, and Eluent B was methanol • Flow rate: 1.0 mL/min • Elution time: 0-4.0 minutes, the eluent is as follows:
The main pharmacokinetic parameters were calculated using WinNonlin 8.2.

T1 sequence (P43220 24-463): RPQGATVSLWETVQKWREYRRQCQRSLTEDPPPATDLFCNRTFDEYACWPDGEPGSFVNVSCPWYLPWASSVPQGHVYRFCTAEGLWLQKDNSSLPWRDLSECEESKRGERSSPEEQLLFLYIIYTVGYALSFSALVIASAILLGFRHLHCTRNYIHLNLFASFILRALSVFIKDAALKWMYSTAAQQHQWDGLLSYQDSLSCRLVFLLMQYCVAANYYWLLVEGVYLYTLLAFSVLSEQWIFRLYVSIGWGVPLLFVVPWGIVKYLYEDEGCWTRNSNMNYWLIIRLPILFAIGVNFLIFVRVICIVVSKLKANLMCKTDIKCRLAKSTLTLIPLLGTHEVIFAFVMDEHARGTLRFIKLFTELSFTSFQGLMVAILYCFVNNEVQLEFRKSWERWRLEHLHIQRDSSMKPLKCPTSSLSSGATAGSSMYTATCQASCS

EC50 (human GLP-1 receptor) | AUC(0-inf) [1] | AUC(0-t) [1] | Cmax [1] | Tmax [1] | half-life [1] | SMILES
0.08 nM | – | – | – | – | – | [2H][C@]1(c2ccc(Cl)cc2F)C=Cc2cccc(C3CCN(Cc4nc5ccc(C(=O)O)cc5n4C[C@@H]4CCO4)CC3)c2O1 [Example 47]
0.05 nM | 12600 ng·h/mL | 12600 ng·h/mL | 9400 ng/mL | 1 h | 1.6 h | N#Cc1ccc([C@H]2C=Cc3cccc(C4CCN(Cc5nc6ccc(C(=O)O)cc6n5C[C@@H]5CCO5)CC4)c3O2)c(F)c1 [Example 52, 2-((4-((R)-2-(4-Cyano-2-fluorophenyl)-2H-chromen-8-yl)piperidin-1-yl)methyl)-1-(((S)-oxetan-2-yl)methyl)-1H-benzo[d]imidazole-6-carboxylic acid]
0.08 nM | – | – | – | – | – | [2H]C([2H])([2H])Oc1cc(Cl)ccc1[C@@]1([2H])C=C(F)c2cccc(C3CCN(Cc4nc5ccc(C(=O)O)cc5n4C[C@@H]4CCO4)CC3)c2O1 [Example 49, 2-((4-((R)-2-(4-Chloro-2-(methoxy-d3)phenyl)-4-fluoro-2H-chromen-8-yl-2-d)piperidin-1-yl)methyl)-1-(((S)-oxetan-2-yl)methyl)-1H-benzo[d]imidazole-6-carboxylic acid]

More lines, now with the values behind:

SMILES | EC50 (human GLP-1 receptor) | AUC(0-inf) [1] | AUC(0-t) [1] | Cmax [1] | Tmax [1] | half-life [1]
O=C(O)c1ccc2nc(CN3CCC(c4cccc5c4OC(c4ccc(Cl)cc4F)C=C5F)CC3)n(CC3(CF)CC3)c2c1 (stereo not drawn) [Example 3, 2-((4-(2-(4-Chloro-2-fluorophenyl)-4-fluoro-2H-chromen-8-yl)piperidin-1-yl)methyl)-1-((1-(fluoromethyl)cyclopropyl)methyl)-1H-benzo[d]imidazole-6-carboxylic acid] | 0.06 nM | – | – | – | – | –
O=C(O)c1ccc2nc(CN3CCC(c4cccc5c4OC(c4ccc(Cl)cc4F)C=C5F)CC3)n(C[C@@H]3CCO3)c2c1 (stereo partly drawn) [Example 1, 2-((4-(2-(4-Chloro-2-fluorophenyl)-4-fluoro-2H-chromen-8-yl)piperidin-1-yl)methyl)-1-(((S)-oxetan-2-yl)methyl)-1H-benzo[d]imidazole-6-carboxylic acid] | 0.13 nM | – | – | – | – | –
[2H]C([2H])([2H])Oc1cc(Cl)ccc1[C@H]1C=C(F)c2cccc(C3CCN(Cc4nc5ccc(C(=O)O)cc5n4C[C@@H]4CCO4)CC3)c2O1 [Example 24-A, 2-((4-((R)-2-(4-chloro-2-(methoxy-d3)phenyl)-4-fluoro-2H-chromen-8-yl)piperidin-1-yl)methyl)-1-(((S)-oxetan-2-yl)methyl)-1H-benzo[d]imidazole-6-carboxylic acid] | 0.05 nM | – | – | – | – | –
[2H]C([2H])([2H])Oc1cc(Cl)ccc1[C@H]1C=C(F)c2cccc(C3CCN(Cc4nc5ccc(C(=O)O)nc5n4C[C@@H]4CCO4)CC3)c2O1 [Example 23-A, 2-((4-((R)-2-(4-chloro-2-(methoxy-d3)phenyl)-4-fluoro-2H-chromen-8-yl)piperidin-1-yl)methyl)-3-(((S)-oxetan-2-yl)methyl)-3H-imidazolo[4,5-b]pyridine-5-carboxylic acid] | 0.07 nM | – | – | – | – | –
O=C(O)c1ccc2nc(CN3CCC(c4cccc5c4O[C@@H](c4ccc(Cl)cc4F)C=C5F)CC3)n(C[C@@H]3CCO3)c2n1 [Example 2-A, 2-((4-((R)-2-(4-chloro-2-fluorophenyl)-4-fluoro-2H-chroman-8-yl)piperidin-1-yl)methyl)-3-(((S)-oxetan-2-yl)methyl)-3H-imidazolo[4,5-b]pyridine-5-carboxylic acid] | 0.07 nM | 35800 ng·h/mL | 35800 ng·h/mL | 7160 ng/mL | 2 h | 3.1 h
